Source: article PMC5519977, “Redox-dependent substrate-cofactor interactions in the Michaelis-complex of a flavin-dependent oxidoreductase” (Nature Communications, 2017)

target: T1, xenobiotic reductase A (XenA) (Pseudomonas putida, UniProt Q3ZDM6); experiment: stopped-flow reoxidation of reduced enzyme; type: biochemical; details: reduced enzyme (FMNH-), anoxic, 50 mM Tris/HCl pH 8.0, 25 °C
T1 construct: recombinant in E. coli Rosetta (DE3), pET28a; N-terminal His-tag removed with TEV protease; reconstituted with FMN
T1 sequence (Q3ZDM6 entry or part of it): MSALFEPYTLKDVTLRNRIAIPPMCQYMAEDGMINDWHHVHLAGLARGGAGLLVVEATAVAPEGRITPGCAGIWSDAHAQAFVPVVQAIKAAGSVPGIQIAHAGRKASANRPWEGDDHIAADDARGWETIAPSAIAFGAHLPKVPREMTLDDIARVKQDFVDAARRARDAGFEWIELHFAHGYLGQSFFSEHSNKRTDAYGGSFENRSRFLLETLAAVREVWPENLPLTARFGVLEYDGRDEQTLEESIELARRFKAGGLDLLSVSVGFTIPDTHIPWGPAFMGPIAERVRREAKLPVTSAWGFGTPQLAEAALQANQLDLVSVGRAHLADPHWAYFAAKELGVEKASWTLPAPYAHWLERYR

Row | SMILES | dissociation constant
1 | O=c1ccc2ccc(O)cc2o1 [7-hydroxycoumarin] | dissociation constants of the reduced Michaelis complexes for the respective substrates
2 | O=c1ccc2cccc(O)c2o1 [8-hydroxycoumarin] | dissociation constants of the reduced Michaelis complexes for the respective substrates
3 | O=c1ccc2ccccc2o1 [coumarin] | dissociation constants of the reduced Michaelis complexes for the respective substrates
